# Test results reported in patent publication US20230286973A1, “PROTEIN SECRETION INHIBITORS” (KEZAR LIFE SCIENCES, priority 2020, published 2023).
# Where two headings read alike, the source gives them in different places.
# How the values were obtained:
# [1] = Liver Microsome Stability Assay (monkey); details: monkey liver microsomes, with NADPH, 1.0 uM compound
# Experimental: (§1) Stability of a compound was assessed in the presence of liver microsomes from various sources—mouse, rat, monkey and human liver microsomes. 1.0 uM compound, 0.4% DMSO in 0.1 M Potassium Phosphate with 1.0 mg/mL liver microsomes, were incubated at 37° C. with or without 1 mM NADPH. The samples were quenched at 0, and 30 minutes.
# [2] = Liver Microsome Stability Assay (mouse); details: mouse liver microsomes, with NADPH, 1.0 uM compound
# Experimental: as §1
# [3] = system: multiple myeloma cell line NCI-H929; assay: H929 Cell Viability Assay; format: cell-based, human; details: Homo sapiens, NCI-H929, 48 h, NCI-H929 cells, Celltiter-Glo
# Procedure, shortened: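 A 48-hour compound treatment of cells in 10% FBS RPMI medium was followed by luciferase-based viability quantification.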
# [4] = Liver Microsome Stability Assay (human); details: human liver microsomes, with NADPH, 1.0 uM compound
# Experimental: as §1
# [5] = system: multiple myeloma cell line U266B1; assay: U266 Cell Viability Assay; format: cell-based, human; details: Homo sapiens, U-266, 48 h, U266B1 cells, Celltiter-Glo
# Procedure, shortened: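 After growth in serum-supplemented RPMI 1640, cells received serially diluted compound in DMSO/media and were kept 48 hours before a CellTiter-Glo luminescence readout.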
# [6] = system: IL-2-FL/Gaussia Luciferase; assay: Dox Induced IL2-FL-Gluc Assay; format: cell-based; details: for IC50: 24 hr Dox induction, 293FRT/TO cells, read-out: 24 hr Dox Inducible IL2FLGluc 293FRT/TO: Mean IC50; for 24 hr Dox Inducible IL2FLGluc 293FRT/TO: IL2/PD1: ratio of IL2FLGluc IC50 to PD1ssGluc IC50
# Procedure, shortened: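 A hygromycin- and blasticidin-resistant 293 T-REx clone carrying inducible IL-2–Gaussia luciferase (full-length IL-2, residues 1-153) serves as the cell system. After overnight plating, the cells get test compounds together with doxycycline in DMSO/media and are incubated at 37° C, 5% CO2.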
# [7] = Liver Microsome Stability Assay (rat); details: rat liver microsomes, with NADPH, 1.0 uM compound
# Experimental: as §1
# [8] = system: PD1-ss+10aa/Gaussia Luciferase; assay: Dox-Induced PD1-ss-Gluc Assay; format: cell-based; details: 24 hr Dox induction, 293FRT/TO cells, read-out: 24 hr Dox Inducible PD1ssGluc 293FRT/TO: Mean IC50
# Procedure, shortened: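 Stable Flp-In 293 T-REx cells carried a doxycycline-inducible construct of Gaussia luciferase fused to the PD1 signal sequence plus 10 amino acids. Cells were plated the day before, then treated with compound dilutions in DMSO/media containing doxycycline at 37 °C, 5% CO2.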
# [9] = system: TNFα-FL/Gaussia Luciferase; assay: Dox Induced TNFα-FL-Gluc Assay; format: cell-based; details: for IC50: 24 hr Dox induction, 293FRT/TO cells, read-out: 24 hr Dox Inducible TNFaFLGluc 293FRT/TO: Mean IC50; for 24 hr Dox Inducible TNFaFLGluc 293FRT/TO: TNF/PD1: ratio of TNFaFLGluc IC50 to PD1ssGluc IC50
# Procedure, shortened: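 Hygromycin/blasticidin-selected Flp-In 293 T-REx cells, TNFα-FL/Gaussia luciferase fusion under T-REx control; overnight plating, then compound in DMSO/media with doxycycline at 37 °C, 5% CO2; stereo-undefined structures tested as mixtures.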
# [10] = system: HER3-ss+4aa/Gaussia Luciferase; assay: Dox-Induced Her3-ss-Gluc Assay; format: cell-based; details: 24 hr Dox induction, 293FRT/TO cells, read-out: 24 hr Dox Inducible Her3(ss + 4)Gluc 293FRT/TO: Mean IC50
# Procedure, shortened: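 Doxycycline-inducible HER3 signal sequence+4aa/Gaussia luciferase construct, stably integrated in Flp-In 293 T-REx cells; compound dilutions applied with doxycycline at 37° C., 5% CO2.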
# [11] = '<=>' given where both are I.A.
smiles,measurement,setting,value
"O=C(Nc1nc([C@H]2CCCN2c2ccccc2)cs1)c1cccn1-c1csc2cnccc12 [Compound C115, (R)-N-(4-(1-phenylpyrrolidin-2-yl)thiazol-2-yl)-1-(thieno[2,3-c]pyridin-3-yl)-1H-pyrrole-2-carboxamide]",Liver Microsome Stability (Multiple Species): Monkey - % Remaining after 30 min w/NADPH,[1],0.66%
same,Liver Microsome Stability (Multiple Species): Mouse - % Remaining after 30 min w/NADPH,[2],1.07%
same,EC50,[3],> 22.8 µM
same,Liver Microsome Stability (Multiple Species): Human - % Remaining after 30 min w/NADPH,[4],1.3%
same,EC50,[5],> 25 µM
same,IC50,[6]; mean,0.613 µM
same,24 hr Dox Inducible IL2FLGluc 293FRT/TO: IL2/PD1,[6]; [11],2.1
same,Liver Microsome Stability (Multiple Species): Rat - % Remaining after 30 min w/NADPH,[7],2.2%
same,IC50,[8]; mean,0.287 µM
same,IC50,[9]; mean,3.53 µM
same,24 hr Dox Inducible TNFaFLGluc 293FRT/TO: TNF/PD1,[9]; [11],12.3
same,IC50,[10]; mean,0.551 µM
"CN(C)C(=O)Nc1ccc(N2CCC[C@@H]2c2csc(NC(=O)c3cccn3Cc3ccnc(F)c3)n2)cc1 [Compound A124, (R)-N-(4-(1-(4-(3,3-dimethylureido)phenyl)pyrrolidin-2-yl)thiazol-2-yl)-1-((2-fluoropyridin-4-yl)methyl)-1H-pyrrole-2-carboxamide]",Liver Microsome Stability (Multiple Species): Monkey - % Remaining after 30 min w/NADPH,[1],27.8%
same,Liver Microsome Stability (Multiple Species): Mouse - % Remaining after 30 min w/NADPH,[2],31.2%
same,EC50,[3],0.166 µM
same,Liver Microsome Stability (Multiple Species): Human - % Remaining after 30 min w/NADPH,[4],53.1%
same,EC50,[5],> 25 µM
same,IC50,[6],0.0104 µM
same,24 hr Dox Inducible IL2FLGluc 293FRT/TO: IL2/PD1,[6],2.1
same,Liver Microsome Stability (Multiple Species): Rat - % Remaining after 30 min w/NADPH,[7],37.6%
same,IC50,[8],0.00487 µM
same,IC50,[9],0.0758 µM
same,24 hr Dox Inducible TNFaFLGluc 293FRT/TO: TNF/PD1,[9],15.6
same,IC50,[10],0.00915 µM
"CC(=O)N1CCC(Oc2c(F)cc(N3CCC[C@@H]3c3csc(NC(=O)c4cccn4Cc4ccnc(F)c4)n3)cc2F)CC1 [Compound A106, (R)-N-(4-(1-(4-((1-acetylpiperidin-4-yl)oxy)-3,5-difluorophenyl)pyrrolidin-2-yl)thiazol-2-yl)-1-((2-fluoropyridin-4-yl)methyl)-1H-pyrrole-2-carboxamide]",Liver Microsome Stability (Multiple Species): Monkey - % Remaining after 30 min w/NADPH,[1],0.35%
same,Liver Microsome Stability (Multiple Species): Mouse - % Remaining after 30 min w/NADPH,[2],1.43%
same,EC50,[3],0.472 µM
same,Liver Microsome Stability (Multiple Species): Human - % Remaining after 30 min w/NADPH,[4],2.95%
same,EC50,[5],> 25 µM
same,IC50,[6],0.0262 µM
same,24 hr Dox Inducible IL2FLGluc 293FRT/TO: IL2/PD1,[6],1.6
same,Liver Microsome Stability (Multiple Species): Rat - % Remaining after 30 min w/NADPH,[7],3.12%
same,IC50,[8],0.0163 µM
same,IC50,[9],0.12 µM
same,24 hr Dox Inducible TNFaFLGluc 293FRT/TO: TNF/PD1,[9],7.32
same,IC50,[10],0.0156 µM
CC(=O)N1CC(CCc2ccc(N3CCC[C@@H]3c3csc(NC(=O)c4cccn4Cc4ccnc(F)c4)n3)cc2)C1 [Compound A176],Liver Microsome Stability (Multiple Species): Monkey - % Remaining after 30 min w/NADPH,[1],0.16%
same,Liver Microsome Stability (Multiple Species): Mouse - % Remaining after 30 min w/NADPH,[2],2.72%
same,EC50,[3],0.438 µM
same,Liver Microsome Stability (Multiple Species): Human - % Remaining after 30 min w/NADPH,[4],1.34%
same,EC50,[5],> 25 µM
same,IC50,[6],0.0418 µM
same,24 hr Dox Inducible IL2FLGluc 293FRT/TO: IL2/PD1,[6],2.8
same,Liver Microsome Stability (Multiple Species): Rat - % Remaining after 30 min w/NADPH,[7],18.6%
same,IC50,[8],0.015 µM
same,IC50,[9],0.487 µM
same,24 hr Dox Inducible TNFaFLGluc 293FRT/TO: TNF/PD1,[9],32.4
same,IC50,[10],0.031 µM
"Cc1cc(C(=O)Nc2nc(/C=C/c3cn(C(C)C)cn3)cs2)n(Cc2ccnc(F)c2)c1 [Compound B99, (E)-1-((2-fluoropyridin-4-yl)methyl)-N-(4-(2-(1-isopropyl-1H-imidazol-4-yl)vinyl)thiazol-2-yl)-4-methyl-1H-pyrrole-2-carboxamide]",Liver Microsome Stability (Multiple Species): Monkey - % Remaining after 30 min w/NADPH,[1],2.99%
same,Liver Microsome Stability (Multiple Species): Mouse - % Remaining after 30 min w/NADPH,[2],49.5%
same,EC50,[3],> 25 µM
same,Liver Microsome Stability (Multiple Species): Human - % Remaining after 30 min w/NADPH,[4],4.91%
same,EC50,[5],> 25 µM
same,IC50,[6],> 25 µM
same,24 hr Dox Inducible IL2FLGluc 293FRT/TO: IL2/PD1,[6],>28
same,Liver Microsome Stability (Multiple Species): Rat - % Remaining after 30 min w/NADPH,[7],49.7%
same,IC50,[8],0.88 µM
same,IC50,[9],> 25 µM
same,24 hr Dox Inducible TNFaFLGluc 293FRT/TO: TNF/PD1,[9],>28.4
same,IC50,[10],10.1 µM
"O=C(Nc1nc([C@H]2CCCN2c2ccc(F)cc2)cs1)c1cccn1Cc1ccncc1 [Compound A25, (R)-N-(4-(1-(4-fluorophenyl)pyrrolidin-2-yl)thiazol-2-yl)-1-(pyridin-4-ylmethyl)-1H-pyrrole-2-carboxamide]",Liver Microsome Stability (Multiple Species): Monkey - % Remaining after 30 min w/NADPH,[1],1.66%
same,Liver Microsome Stability (Multiple Species): Mouse - % Remaining after 30 min w/NADPH,[2],1.56%
same,EC50,[3],0.412 µM
same,Liver Microsome Stability (Multiple Species): Human - % Remaining after 30 min w/NADPH,[4],3.01%
same,EC50,[5],16.1 µM
same,IC50,[6],0.0175 µM
same,24 hr Dox Inducible IL2FLGluc 293FRT/TO: IL2/PD1,[6],1.8
same,Liver Microsome Stability (Multiple Species): Rat - % Remaining after 30 min w/NADPH,[7],1.84%
same,IC50,[8],0.00992 µM
same,IC50,[9],0.24 µM
same,24 hr Dox Inducible TNFaFLGluc 293FRT/TO: TNF/PD1,[9],24.2
same,IC50,[10],0.0207 µM
"Cc1cccc2nc(/C=C/c3csc(NC(=O)c4cccn4Cc4ccnc(F)c4)n3)cn12 [Compound B70, (E)-1-((2-fluoropyridin-4-yl)methyl)-N-(4-(2-(5-methylimidazo[1,2-a]pyridin-2-yl)vinyl)thiazol-2-yl)-1H-pyrrole-2-carboxamide]",Liver Microsome Stability (Multiple Species): Monkey - % Remaining after 30 min w/NADPH,[1],0.19%
same,Liver Microsome Stability (Multiple Species): Mouse - % Remaining after 30 min w/NADPH,[2],2.19%
same,EC50,[3],> 25 µM
same,Liver Microsome Stability (Multiple Species): Human - % Remaining after 30 min w/NADPH,[4],0.35%
same,EC50,[5],> 25 µM
same,IC50,[6],> 25 µM
same,24 hr Dox Inducible IL2FLGluc 293FRT/TO: IL2/PD1,[6],>50
same,Liver Microsome Stability (Multiple Species): Rat - % Remaining after 30 min w/NADPH,[7],1.37%
same,IC50,[8],0.499 µM
same,IC50,[9],> 25 µM
same,24 hr Dox Inducible TNFaFLGluc 293FRT/TO: TNF/PD1,[9],>50.1
same,IC50,[10],> 25 µM
O=C(Nc1ccccn1)c1csc(NC(=O)c2cccn2Cc2ccncc2)n1 [Compound E53],Liver Microsome Stability (Multiple Species): Monkey - % Remaining after 30 min w/NADPH,[1],2.89%
same,Liver Microsome Stability (Multiple Species): Mouse - % Remaining after 30 min w/NADPH,[2],5%
same,EC50,[3],> 25 µM
same,Liver Microsome Stability (Multiple Species): Human - % Remaining after 30 min w/NADPH,[4],7.99%
same,EC50,[5],> 25 µM
same,IC50,[6]; mean,> 25 µM
same,24 hr Dox Inducible IL2FLGluc 293FRT/TO: IL2/PD1,[6]; [11],1
same,Liver Microsome Stability (Multiple Species): Rat - % Remaining after 30 min w/NADPH,[7],5.58%
same,IC50,[8]; mean,> 25 µM
same,IC50,[9]; mean,> 25 µM
same,IC50,[10]; mean,> 25 µM
"O=C(Nc1nc([C@H]2CCCN2c2ccccc2)cs1)c1cccn1Cc1cccc(F)c1 [Compound C118, (R)-1-(3-fluorobenzyl)-N-(4-(1-phenylpyrrolidin-2-yl)thiazol-2-yl)-1H-pyrrole-2-carboxamide]",Liver Microsome Stability (Multiple Species): Monkey - % Remaining after 30 min w/NADPH,[1],26.9%
same,Liver Microsome Stability (Multiple Species): Mouse - % Remaining after 30 min w/NADPH,[2],48.1%
same,EC50,[3],> 25 µM
same,Liver Microsome Stability (Multiple Species): Human - % Remaining after 30 min w/NADPH,[4],59.7%
same,EC50,[5],> 25 µM
same,IC50,[6]; mean,1.01 µM
same,24 hr Dox Inducible IL2FLGluc 293FRT/TO: IL2/PD1,[6]; [11],1.4
same,Liver Microsome Stability (Multiple Species): Rat - % Remaining after 30 min w/NADPH,[7],33.5%
same,IC50,[8]; mean,0.719 µM
same,IC50,[9]; mean,9.78 µM
same,24 hr Dox Inducible TNFaFLGluc 293FRT/TO: TNF/PD1,[9]; [11],13.6
same,IC50,[10]; mean,0.732 µM
